# Reference: US11970713B2, “Method for long-term ex vivo maintenance or expansion of human erythroblast, human megakaryocyte-erythroid progenitor, or human common myeloid progenitor cell and application thereof” (OCGENE THERAPEUTICS CORPORATION, priority 2020, dated 2024)
# Entries after “also recorded” stand apart in the source; their conditions may differ.
# System: human umbilical cord blood mononuclear cells
# Experiment: Cell expansion in E6 medium with different tankyrase inhibitors, removal of SB590885 or CHIR99021, or different XAV939 concentrations (Example 6)
# Type: cell-based
# Conditions: XAV939 between 0.2 μM and 2 μM in E6 + 3i
# Experimental: 2×10^6 of human umbilical cord blood mononuclear cells were cultured in E6 medium supplemented with 3i composition (the same as that in EXAMPLE 1) as a control group; and 2×10^6 of human umbilical cord blood mononuclear cells were cultured in E6 medium supplemented with 3i+X composition (the same as that in EXAMPLE 1) as experimental groups, wherein X presented the tankyrase inhibitor, and different tankyrase inhibitors were selected from JW55, RK-287107, WIKI4, XAV939 or TC-E5001 in different experimental groups.
# Additionally, the inventors investigated effect of removal of SB590885, removal of CHIR99021, or experience of different concentrations of XAV939 on cell expansion. The cell counting results were shown in Tables 2, 3, and 4, respectively.
structure (smiles),measurement,value
Oc1nc(-c2ccc(C(F)(F)F)cc2)nc2c1CSCC2 [XAV939],Effect of XAV939 concentration on expanded cell numbers,about the same; also recorded: can promote cell expansion
